Reference: ChEMBL document CHEMBL5380857, “Discovery of Potent, Selective, and Orally Bioavailable Small-Molecule Inhibitors of CDK8 for the Treatment of Cancer” (J Med Chem, 2023)

Legend:
CDK8/Cyclin C = CDK8/Cyclin C (Homo sapiens, UniProt P49336); test: Inhibition of His tagged human recombinant CDK8/Cyclin C expressed in baculovirus expression system incubated for 15 mins by FRET-based LanthaScreen binding competition assay
[1] = Bioavailability in CD-1 mouse at 5 mg/kg, po or 1 mg/kg, iv administered as single dose and measured for 24 hrs by LC-MS/MS analysis; assay type: ADME, organism-based; details: in vivo
[2] = Volume of distribution in CD-1 mouse at 5 mg/kg, po or 1 mg/kg, iv administered as single dose and measured for 24 hrs by LC-MS/MS analysis; assay type: ADME, organism-based; details: in vivo
[3] = Metabolic stability in human liver microsomes assessed as intrinsic clearance at 1 uM preincubated for 10 mins followed by NADPH addition and measured for 60 mins by LC-MS/MS analysis; assay type: ADME, Microsome; details: read-out: CLH
[4] = biological target: Glycogen synthase kinase-3 beta (Homo sapiens, UniProt P49841)
Description: Binding affinity to GSK3B (unknown origin) assessed as dissociation constant by competitive binding assay

[5] = biological target: Dual specificity protein kinase CLK1 (Homo sapiens, UniProt P49759); test: Binding affinity to CLK1 (unknown origin) assessed as dissociation constant by competitive binding assay
[6] = biological target: Phosphatidylinositol 3-kinase catalytic subunit type 3 (Homo sapiens, UniProt Q8NEB9); test: Binding affinity to VPS34 (unknown origin) assessed as dissociation constant by competitive binding assay
[7] = biological target: Glycogen synthase kinase-3 alpha (Homo sapiens, UniProt P49840); test: Binding affinity to GSK3A (unknown origin) assessed as dissociation constant by competitive binding assay
MV4-11 [8] = test: Antiproliferative activity against human MV4-11 cells assessed as inhibition of cell growth incubated for 10 days and replacement with fresh media with compounds on day 5 by CTG assay; assay type: functional, cell-based
[9] = biological target: Dual specificity tyrosine-phosphorylation-regulated kinase 1B (Homo sapiens, UniProt Q9Y463); test: Binding affinity to DYRK1B (unknown origin) assessed as dissociation constant by competitive binding assay
[10] = Metabolic stability in mouse liver microsomes assessed as intrinsic clearance at 1 uM preincubated for 10 mins followed by NADPH addition and measured for 60 mins by LC-MS/MS analysis; assay type: ADME, Microsome; details: read-out: CLH
[11] = Metabolic stability in rat liver microsomes assessed as intrinsic clearance at 1 uM preincubated for 10 mins followed by NADPH addition and measured for 60 mins by LC-MS/MS analysis; assay type: ADME, Microsome; details: read-out: CLH
[12] = biological target: T1, Serine/threonine-protein kinase LATS2 (Homo sapiens, UniProt Q9NRM7); test: Binding affinity to LATS2 (unknown origin) assessed as dissociation constant by competitive binding assay
T1 sequence (Q9NRM7 whole entry): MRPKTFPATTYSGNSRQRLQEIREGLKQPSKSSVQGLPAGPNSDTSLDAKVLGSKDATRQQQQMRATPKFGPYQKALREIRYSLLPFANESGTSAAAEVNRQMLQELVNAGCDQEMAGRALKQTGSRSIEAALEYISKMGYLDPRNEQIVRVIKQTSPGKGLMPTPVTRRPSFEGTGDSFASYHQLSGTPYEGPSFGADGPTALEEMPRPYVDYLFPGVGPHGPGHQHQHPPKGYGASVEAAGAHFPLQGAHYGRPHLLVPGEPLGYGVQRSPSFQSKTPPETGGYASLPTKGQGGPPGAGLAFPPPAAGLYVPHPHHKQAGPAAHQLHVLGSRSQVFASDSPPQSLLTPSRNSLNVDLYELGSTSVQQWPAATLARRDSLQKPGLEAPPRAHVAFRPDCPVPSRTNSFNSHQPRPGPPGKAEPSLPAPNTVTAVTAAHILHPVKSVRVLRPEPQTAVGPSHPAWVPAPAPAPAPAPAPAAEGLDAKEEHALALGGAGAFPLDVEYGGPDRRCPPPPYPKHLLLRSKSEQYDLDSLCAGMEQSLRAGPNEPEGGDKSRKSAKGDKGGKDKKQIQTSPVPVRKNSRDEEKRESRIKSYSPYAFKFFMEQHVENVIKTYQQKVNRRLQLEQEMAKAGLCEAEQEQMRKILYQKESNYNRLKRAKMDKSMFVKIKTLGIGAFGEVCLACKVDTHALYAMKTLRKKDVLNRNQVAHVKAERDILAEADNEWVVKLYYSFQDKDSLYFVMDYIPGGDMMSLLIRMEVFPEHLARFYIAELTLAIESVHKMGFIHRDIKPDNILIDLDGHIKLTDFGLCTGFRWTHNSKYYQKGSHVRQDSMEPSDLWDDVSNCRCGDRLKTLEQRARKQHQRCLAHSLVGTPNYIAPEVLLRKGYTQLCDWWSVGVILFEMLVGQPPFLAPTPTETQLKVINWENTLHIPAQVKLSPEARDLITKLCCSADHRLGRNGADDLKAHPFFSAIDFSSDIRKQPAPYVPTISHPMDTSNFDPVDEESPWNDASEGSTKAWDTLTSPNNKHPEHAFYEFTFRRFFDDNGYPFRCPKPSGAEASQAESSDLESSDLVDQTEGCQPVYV

[13] = biological target: Dual specificity protein kinase CLK2 (Homo sapiens, UniProt P49760); test: Binding affinity to CLK2 (unknown origin) assessed as dissociation constant by competitive binding assay
MV4-11 [14] = test: Antitumor activity against human MV4-11 cells xenografted in BALB/c nude mouse assessed as tumor growth inhibition at 60 mg/kg, po qd administered by gavage for 17 days and measured 3 times per week by caliper method relative to control; assay type: functional; details: MV4-11, 408 h, time 17 day, read-out: TGI

Chain of Dual specificity protein kinase CLK2 (P49760 whole entry): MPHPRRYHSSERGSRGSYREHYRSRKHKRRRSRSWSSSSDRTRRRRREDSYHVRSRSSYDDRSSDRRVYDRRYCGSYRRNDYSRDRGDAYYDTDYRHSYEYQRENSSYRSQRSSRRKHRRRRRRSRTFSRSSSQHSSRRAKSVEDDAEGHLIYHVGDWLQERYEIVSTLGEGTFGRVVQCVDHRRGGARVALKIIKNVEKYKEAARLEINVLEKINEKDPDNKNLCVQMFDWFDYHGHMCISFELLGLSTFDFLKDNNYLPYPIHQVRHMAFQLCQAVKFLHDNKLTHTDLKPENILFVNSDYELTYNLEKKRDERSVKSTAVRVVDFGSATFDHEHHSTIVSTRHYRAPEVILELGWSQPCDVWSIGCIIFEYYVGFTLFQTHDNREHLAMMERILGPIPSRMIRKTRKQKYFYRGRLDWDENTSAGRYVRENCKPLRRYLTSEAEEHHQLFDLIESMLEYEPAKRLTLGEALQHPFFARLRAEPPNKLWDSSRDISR
Chain of CDK8/Cyclin C (P49336 whole entry): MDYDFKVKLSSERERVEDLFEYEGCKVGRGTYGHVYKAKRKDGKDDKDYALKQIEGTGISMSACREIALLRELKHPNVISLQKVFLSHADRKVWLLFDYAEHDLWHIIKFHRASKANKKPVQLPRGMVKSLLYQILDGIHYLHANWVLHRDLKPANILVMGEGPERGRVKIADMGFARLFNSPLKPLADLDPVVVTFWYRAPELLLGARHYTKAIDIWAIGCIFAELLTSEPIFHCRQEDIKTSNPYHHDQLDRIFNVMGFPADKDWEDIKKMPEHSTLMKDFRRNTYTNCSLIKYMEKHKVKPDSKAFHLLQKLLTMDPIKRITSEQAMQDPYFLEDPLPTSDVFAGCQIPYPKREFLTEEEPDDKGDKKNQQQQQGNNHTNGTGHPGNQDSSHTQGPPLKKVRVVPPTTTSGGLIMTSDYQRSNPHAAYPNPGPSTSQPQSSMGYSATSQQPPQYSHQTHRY
Chain of CDK8/Cyclin C (P24863 whole entry, further chain): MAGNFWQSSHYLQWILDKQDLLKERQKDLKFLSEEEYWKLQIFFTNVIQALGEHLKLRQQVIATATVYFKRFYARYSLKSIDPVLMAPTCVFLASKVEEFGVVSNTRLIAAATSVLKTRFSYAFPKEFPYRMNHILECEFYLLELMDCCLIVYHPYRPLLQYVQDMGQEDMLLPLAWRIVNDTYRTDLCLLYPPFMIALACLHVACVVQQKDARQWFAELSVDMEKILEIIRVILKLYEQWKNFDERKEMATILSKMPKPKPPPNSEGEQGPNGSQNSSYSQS
Chain of Phosphatidylinositol 3-kinase catalytic subunit type 3 (Q8NEB9 whole entry): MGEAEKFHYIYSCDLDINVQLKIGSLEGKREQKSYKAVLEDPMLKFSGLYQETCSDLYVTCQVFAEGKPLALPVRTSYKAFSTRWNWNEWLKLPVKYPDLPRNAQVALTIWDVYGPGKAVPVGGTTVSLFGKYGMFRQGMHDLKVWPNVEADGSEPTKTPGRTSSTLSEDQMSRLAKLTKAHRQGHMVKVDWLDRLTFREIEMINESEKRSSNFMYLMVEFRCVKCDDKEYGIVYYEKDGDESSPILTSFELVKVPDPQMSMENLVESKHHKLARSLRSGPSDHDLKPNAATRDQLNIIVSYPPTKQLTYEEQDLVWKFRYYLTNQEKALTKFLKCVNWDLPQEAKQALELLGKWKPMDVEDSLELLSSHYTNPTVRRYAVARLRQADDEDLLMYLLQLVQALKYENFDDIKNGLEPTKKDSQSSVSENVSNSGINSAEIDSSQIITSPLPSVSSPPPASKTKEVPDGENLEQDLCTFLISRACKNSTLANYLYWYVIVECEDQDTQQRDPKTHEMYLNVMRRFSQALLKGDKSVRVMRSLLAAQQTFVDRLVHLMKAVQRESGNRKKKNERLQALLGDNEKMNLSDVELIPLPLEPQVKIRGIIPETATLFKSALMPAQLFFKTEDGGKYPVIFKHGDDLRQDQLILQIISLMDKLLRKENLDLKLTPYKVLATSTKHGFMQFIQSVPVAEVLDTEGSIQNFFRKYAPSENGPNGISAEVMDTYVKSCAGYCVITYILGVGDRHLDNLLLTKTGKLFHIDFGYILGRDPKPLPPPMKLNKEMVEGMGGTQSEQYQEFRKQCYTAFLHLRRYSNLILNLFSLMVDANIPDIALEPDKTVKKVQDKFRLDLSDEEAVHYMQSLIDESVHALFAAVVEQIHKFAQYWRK
Chain of Glycogen synthase kinase-3 beta (P49841 whole entry): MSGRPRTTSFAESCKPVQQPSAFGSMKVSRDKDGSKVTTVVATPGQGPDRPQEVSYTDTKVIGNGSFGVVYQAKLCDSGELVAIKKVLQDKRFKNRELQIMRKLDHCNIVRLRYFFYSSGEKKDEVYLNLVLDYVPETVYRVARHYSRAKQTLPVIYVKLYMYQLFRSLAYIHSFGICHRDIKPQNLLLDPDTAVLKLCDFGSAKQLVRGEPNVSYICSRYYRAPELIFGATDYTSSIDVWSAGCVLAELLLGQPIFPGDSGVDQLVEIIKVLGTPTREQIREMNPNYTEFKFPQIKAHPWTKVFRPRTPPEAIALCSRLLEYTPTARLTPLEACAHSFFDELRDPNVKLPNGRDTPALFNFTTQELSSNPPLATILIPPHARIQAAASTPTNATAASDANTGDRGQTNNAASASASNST
Chain of Dual specificity protein kinase CLK1 (P49759 whole entry): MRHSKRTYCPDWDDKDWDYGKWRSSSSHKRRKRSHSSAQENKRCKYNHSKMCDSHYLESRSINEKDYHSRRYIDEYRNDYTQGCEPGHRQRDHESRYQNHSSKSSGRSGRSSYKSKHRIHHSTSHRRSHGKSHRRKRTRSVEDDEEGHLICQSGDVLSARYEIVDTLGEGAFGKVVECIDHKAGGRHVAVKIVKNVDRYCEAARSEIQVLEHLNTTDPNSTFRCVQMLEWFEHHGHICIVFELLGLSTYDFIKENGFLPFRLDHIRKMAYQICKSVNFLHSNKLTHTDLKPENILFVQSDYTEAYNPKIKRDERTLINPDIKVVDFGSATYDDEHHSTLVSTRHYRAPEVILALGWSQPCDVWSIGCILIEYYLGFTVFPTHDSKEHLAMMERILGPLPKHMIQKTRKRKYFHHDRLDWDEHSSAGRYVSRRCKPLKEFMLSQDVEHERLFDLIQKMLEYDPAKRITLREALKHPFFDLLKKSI
Chain of Dual specificity tyrosine-phosphorylation-regulated kinase 1B (Q9Y463 whole entry): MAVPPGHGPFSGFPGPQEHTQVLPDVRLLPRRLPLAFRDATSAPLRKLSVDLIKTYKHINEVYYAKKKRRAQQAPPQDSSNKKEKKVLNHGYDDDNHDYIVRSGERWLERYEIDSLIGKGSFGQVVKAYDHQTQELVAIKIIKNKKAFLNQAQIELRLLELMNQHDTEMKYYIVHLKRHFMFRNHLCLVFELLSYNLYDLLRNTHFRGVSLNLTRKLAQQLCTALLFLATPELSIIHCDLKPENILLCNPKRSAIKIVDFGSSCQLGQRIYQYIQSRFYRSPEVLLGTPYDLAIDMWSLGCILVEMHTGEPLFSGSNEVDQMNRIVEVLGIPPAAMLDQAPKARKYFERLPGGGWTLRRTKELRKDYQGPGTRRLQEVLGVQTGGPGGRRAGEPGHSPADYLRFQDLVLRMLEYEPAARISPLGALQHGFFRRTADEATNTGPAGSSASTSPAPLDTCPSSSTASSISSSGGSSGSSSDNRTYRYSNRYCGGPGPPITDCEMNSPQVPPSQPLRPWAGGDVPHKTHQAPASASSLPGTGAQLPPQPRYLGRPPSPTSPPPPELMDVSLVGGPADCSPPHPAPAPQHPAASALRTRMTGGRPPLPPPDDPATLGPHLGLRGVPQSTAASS
Chain of Glycogen synthase kinase-3 alpha (P49840 whole entry): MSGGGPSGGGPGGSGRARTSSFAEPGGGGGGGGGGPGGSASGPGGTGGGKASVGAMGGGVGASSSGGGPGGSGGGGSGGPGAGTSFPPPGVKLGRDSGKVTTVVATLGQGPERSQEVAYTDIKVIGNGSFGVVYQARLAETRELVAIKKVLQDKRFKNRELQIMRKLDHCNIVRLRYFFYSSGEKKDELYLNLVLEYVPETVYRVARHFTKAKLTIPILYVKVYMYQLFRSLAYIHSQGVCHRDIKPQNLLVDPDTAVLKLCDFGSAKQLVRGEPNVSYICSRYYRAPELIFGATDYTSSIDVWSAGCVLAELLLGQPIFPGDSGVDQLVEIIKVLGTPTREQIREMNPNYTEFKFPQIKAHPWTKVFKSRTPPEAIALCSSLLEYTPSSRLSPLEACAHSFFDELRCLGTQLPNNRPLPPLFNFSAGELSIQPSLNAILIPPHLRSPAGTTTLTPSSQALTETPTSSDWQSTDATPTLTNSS

IC50 (CDK8/Cyclin C)	CLint scaled at 1 µM [3]	IC50 (MV4-11 [8])	CLint scaled at 1 µM [10]	CLint scaled at 1 µM [11]	Structure (SMILES)	other results
0.0829 µM					COc1nnc(-c2ccc3[nH]nc(C)c3c2)n1Cc1ccc(Cl)cc1	
0.0009 µM	< 8.6 mL/min/kg	0.0117 µM	339 mL/min/kg	270 mL/min/kg	Cc1n[nH]c2ccc(-c3nnc4n3[C@H](c3ccc(Cl)cc3)CC4)nc12	bioavailability [1]: 63.7%; Vd [2]: 0.4 L/kg; Kd [4]: 0.039 µM; Kd [5]: 0.071 µM; Kd [6]: 0.02 µM; Kd [7]: 0.074 µM; Kd [9]: 1.3 µM; Kd [12]: 0.46 µM; Kd [13]: 0.064 µM
0.0015 µM	< 8.6 mL/min/kg	0.0246 µM	368 mL/min/kg	104 mL/min/kg	Cc1n[nH]c2ncc(-c3nnc4n3[C@H](c3ccc(Cl)cc3)CC4)cc12	bioavailability [1]: 63.4%; Vd [2]: 0.7 L/kg; Kd [4]: 0.0038 µM; Kd [5]: 0.086 µM; Kd [6]: 2.9 µM; Kd [7]: 0.0065 µM; Kd [9]: 2.1 µM; Kd [12]: 0.73 µM; Kd [13]: 0.082 µM
0.00088 µM	10.8 mL/min/kg	0.0728 µM	273 mL/min/kg	54.5 mL/min/kg	Cc1nnc(-c2ccc3[nH]nc(Cl)c3c2)n1Cc1ccc(Cl)cc1	bioavailability [1]: 50.8%; Vd [2]: 2.7 L/kg
0.277 µM					Cc1n[nH]c2ccc(-c3nnc(C)n3C(C)c3ccc(Cl)cc3)cc12 (stereo not given)	
0.0171 µM					Cc1n[nH]c2ncc(-c3nnc(C)n3Cc3ccc(Cl)cc3)cc12	
0.00614 µM					Cc1n[nH]c2ccc(-c3nnc(C)n3Cc3ccc(C#N)cc3)cc12	
0.00329 µM					Cc1n[nH]c2ccc(-c3nnc(C)n3Cc3ccc(Cl)cc3)nc12	
0.00071 µM	59.2 mL/min/kg		536 mL/min/kg		Cc1n[nH]c2ccc(-c3cnn(C)c3Cc3ccc(Cl)cc3)cc12	
0.00037 µM	87.1 mL/min/kg		843 mL/min/kg		Cc1n[nH]c2ccc(-c3nnc4n3[C@H](c3ccc(Cl)cc3)CCC4)cc12	
0.00732 µM		0.367 µM			Cc1n[nH]c2ccc(-c3ncc(C)n3Cc3ccc(Cl)cc3)cc12	
0.0054 µM					CNc1n[nH]c2ccc(-c3nnc4n3C(c3ccc(Cl)cc3)CC4)cc12 (racemic)	
0.00482 µM					Cc1n[nH]c2ccc(-c3nnc(C(F)(F)F)n3Cc3ccc(Cl)cc3)cc12	
0.0141 µM		0.249 µM			Cc1c(Br)c(Br)c2c3c1nc(N1CCNCC1)n3CCC2 [SEL-120 FREE BASE]	inhibition in vivo at 60 mg/kg (MV4-11 [14]): 55.6%
0.0357 µM					CNc1n[nH]c2ncc(-c3nnc4n3C(c3ccc(Cl)cc3)CC4)cc12 (racemic)	
0.0004 µM	66.1 mL/min/kg	0.00475 µM	823 mL/min/kg	385 mL/min/kg	Cc1n[nH]c2ccc(-c3nnn(C)c3Cc3ccc(Cl)cc3)cc12	
0.00063 µM	92 mL/min/kg	0.0076 µM	720 mL/min/kg	118 mL/min/kg	Cc1n[nH]c2ccc(-c3nnc4n3[C@H](c3ccc(Cl)cc3)COC4)cc12	bioavailability [1]: 19.4%; Vd [2]: 1.2 L/kg
0.00049 µM	12.2 mL/min/kg	0.0086 µM	342 mL/min/kg	54.4 mL/min/kg	Cc1n[nH]c2ccc(-c3nnc(C)n3Cc3ccc(Cl)cc3)cc12	bioavailability [1]: 82.1%; Vd [2]: 0.8 L/kg; Kd [4]: 0.056 µM; Kd [5]: 0.043 µM; Kd [6]: 1.8 µM; Kd [7]: 0.12 µM; Kd [9]: 1.4 µM; Kd [12]: 0.038 µM; Kd [13]: 0.036 µM
0.00083 µM		0.0062 µM			Cc1n[nH]c2ccc(-c3nnc4n3[C@H](c3ccc(Cl)cc3)CN(C)C4)cc12	
0.0004 µM	23.1 mL/min/kg	0.0024 µM	540 mL/min/kg	151 mL/min/kg	Cc1n[nH]c2ccc(-c3nnc4n3[C@H](c3ccc(Cl)cc3)CC4)cc12	bioavailability [1]: 63.7%; Vd [2]: 0.7 L/kg; Kd [5]: 0.015 µM; Kd [6]: 0.068 µM; Kd [7]: 0.0043 µM; Kd [9]: 0.33 µM; Kd [12]: 0.018 µM; Kd [13]: 0.0021 µM
> 1 µM					Cc1n[nH]c2ccc(-c3nnc(O)n3Cc3ccc(Cl)cc3)cc12	
0.00048 µM	64.9 mL/min/kg		1310 mL/min/kg		Cc1n[nH]c2ccc(-c3nnc4n3[C@H](c3ccc(Cl)cc3)CNC4)cc12	
0.08 µM					Cc1n[nH]c2ccc(-c3nnc(C)n3Cc3ccc(Cl)cn3)cc12	
